Measurements from patent publication US20110294890A1, “Neramexane for the treatment or prevention of inner ear disorders” (MERZ PHARMA GmbH & CO. KGaA, priority 2010, published 2011).

Test system: subjects with subjective tinnitus of at least moderate severity
Assay: Double blind placebo controlled Phase III clinical trial of neramexane for treatment of tinnitus (TBF-12 total score)
Assay type: in vivo, human
Conditions: for Change in the TBF-12 total score from baseline to Week 17/EOT, LSmean: 50/75 mg/d, mean adjusted for covariates (ANCOVA); for Change in the TBF-12 total score from baseline to Week 17/EOT, LSmean / Change in the TBF-12 total score from baseline to Week 17/EOT, Mean change (SD): 17 weeks; for Change in the TBF-12 total score from baseline to Week 17/EOT, LSmean / Change in the TBF-12 total score from baseline to Week 17/EOT, Mean change (SD) / Comparison between treatment groups, LSmean (ner − pla), change in TBF-12 total score: FAS-LOCF; for Change in the TBF-12 total score from baseline to Week 17/EOT, Mean change (SD): neramexane mesylate 50/75 mg/d by body weight; for Comparison between treatment groups, LSmean (ner − pla), change in TBF-12 total score: estimated difference Neramexane − Placebo from ANCOVA
Protocol: The objective of this clinical trial was to assess the efficacy of neramexane as a treatment for tinnitus. The primary objective of this 17 weeks double-blind, randomized placebo-controlled study was to compare the efficacy, tolerability and safety of neramexane mesylate at two different, weight-adapted dosages (50 or 75 mg/d) with placebo in subjects with subjective tinnitus of at least moderate severity.
In a double-blind, multicenter, randomized, placebo-controlled, parallel-group study, the efficacy of neramexane in subjects suffering from tinnitus of at least moderate severity was assessed. A total of 411 patients, who fulfilled particular inclusion criteria and met none of particular exclusion criteria, were randomized to one of two double-blind treatment groups (neramexane mesylate 50 or 75 mg/d depending on body weight, or placebo).
Subjects were treated for 17 weeks with neramexane or placebo including a four- resp. five-week up-titration period, depending on study drug dose, followed by 30 to 35 days treatment-free observational period. Alternatively to treatment-free observational period, subjects could immediately at Week 17 start with a one-year open label treatment study.
Main inclusion criteria were: • Diagnosis of “subjective tinnitus” • Tinnitus duration of at least 3 months and less or equal to 12 months (subacute tinnitus) • Persistent, uni- or bilateral tinnitus • THI-12≧9 (=at least moderate tinnitus severity) • Hospital Anxiety and Depression (HADS) subscores for depression ≦10 and for anxiety ≦10
Main exclusion criteria were: • Intermittent or pulsatile tinnitus • Tinnitus as a concomitant symptom of an otological/neurological disease • Concomitant tinnitus treatment • Application for a pension/retirement pay or granted pension/retirement because of tinnitus.
Patients with a target daily dose of 50 mg neramexane mesylate (<90 kg body weight) were to reach steady state after four weeks, patients with a target total daily dose of 75 mg neramexane mesylate (≧90 kg body weight) were to reach steady state after five weeks of treatment. For patients who experienced dose limiting adverse events with the 75 mg dose, the dosage was reduced by switching the patient to 50 mg/day. Patients unable to tolerate a minimum dosage of 50 mg/day discontinued.
Patient eligibility for the study was evaluated via a check of inclusion/exclusion criteria. The subject completed a Tinnitus-Beeinträchtigungs-Fragebogen (TBF-12=Tinnitus. Handicap Inventory (THI-12)) (i.e., a 12-item modified and validated version (Greimel K V et al., Tinnitus-Beeinträchtigungs-Fragebogen (TBF-12). Manual. Frankfurt am Main: Swets & Zeitlinger B. V.; 2000) of the 25-item Tinnitus Handicap Inventory or THI (Newman C W, et al. Development of the Tinnitus Handicap Inventory. Arch Otolaryngol Head Neck Surg 1996; 122(2): 143-148; Newman C W, et al. Psychometric adequacy of the Tinnitus Handicap Inventory (THI) for evaluating treatment outcome. J Am Acad Audiol 1998; 9(2): 153-160.)). The TBF-12 items can be grouped in 2 factorial scores: an emotional-cognitive and a functional-communicational factor. At Visit 1. patients also completed a Tinnitus Rating Scale (TRS, Likert scores on Tinnitus Loudness, Tinnitus Impact on Life, and Tinnitus Annoyance), and the Hospital Anxiety and Depression Scale Audiology/psychoacoustic measurements were performed unless results from previous examinations performed no more than one year prior to Screening were available.
Visit 7 (Week 17, end of treatment (EOT)). This visit occurred at the end of the 12-week fixed-dose double-blind treatment period. This visit was also to be performed for patients who discontinued prematurely. The subject was asked about adverse events and changes in concomitant medication/disease, which changes are documented. A clinical laboratory evaluation was performed as well as ECG and physical examination (including body weight). Blood samples were collected in order to determine neramexane concentration. […]

**Q.** What does the source list for `CC1(C)CC(C)(C)CC(C)(N)C1` [Neramexane, 1-amino-1,3,3,5,5-pentamethylcyclohexane]?
**A.** Change in the TBF-12 total score from baseline to Week 17/EOT, LSmean (Females, N=74): −3.8; Change in the TBF-12 total score from baseline to Week 17/EOT, Mean change (SD) (Females, N=74): −3.1 (4.2); Comparison between treatment groups, LSmean (ner − pla), change in TBF-12 total score (Females, P-value 0.0122): −1.7; Change in the TBF-12 total score from baseline to Week 17/EOT, LSmean (Total population, N=203): −3.0; Change in the TBF-12 total score from baseline to Week 17/EOT, Mean change (SD) (Total population, N=203): −2.5 (4.3); Comparison between treatment groups, LSmean (ner − pla), change in TBF-12 total score (Total population, P-value 0.1997): −0.5; Improvement for the treatment of tinnitus in subgroups of women (women 26 to 65 or 46 to 65 years of age, and/or free from clinical signs of depression (HADS-D 7 or less)): an improvement; Improvement for the treatment of tinnitus in women (TBF-12 total score) (women, compared to the effect found for the total patient population): statistically significant improvement
